# According to patent US8952024B2, “Herbicidal pyrimidone derivatives” (E I du Pont de Nemours and Company, priority 2009, dated 2015):
# How the values were obtained:
# Type in all cases: in vivo
# [1] = tested on: umbrella sedge (Cyperus difformis); assay: Test B flooded paddy test; settings: for Plant response rating, Flood, Sedge, Umbrella: 250 g ai/ha, flooded paddy test, visual rating on 0 to 100 scale (0 no effect, 100 complete control) after 13 to 15 days; for Plant response rating, Sedge, Umbrella: Flood (flooded paddy test), 13 to 15 days; for Sedge, Umbrella plant response rating: Flood, 31 g ai/ha, scale 0 to 100 (0 no effect, 100 complete control)
# Method in brief: (§1)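 Each compound is added to standing floodwater (3 cm above soil, maintained) in pots of 2-leaf-stage plants; greenhouse exposure lasts 13–15 d before visual comparison with controls on a 0–100 control scale.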
# rice (Oryza sativa) = assay: Test B flooded paddy test; settings: for Plant response rating, Flood, Rice: 250 g ai/ha, flooded paddy test, visual rating on 0 to 100 scale (0 no effect, 100 complete control) after 13 to 15 days; for Plant response rating, Rice: Flood (flooded paddy test), 13 to 15 days; for Rice plant response rating: Flood, 31 g ai/ha, scale 0 to 100 (0 no effect, 100 complete control)
# Method in brief: as §1
# [2] = tested on: barnyardgrass (Echinochloa crus-galli); assay: Test B flooded paddy test; settings: for Plant response rating, Flood, Barnyardgrass: 250 g ai/ha, flooded paddy test, visual rating on 0 to 100 scale (0 no effect, 100 complete control) after 13 to 15 days; for Plant response rating, Barnyardgrass: Flood (flooded paddy test), 13 to 15 days; for Barnyardgrass plant response rating: Flood, 31 g ai/ha, scale 0 to 100 (0 no effect, 100 complete control)
# Method in brief: as §1
# [3] = tested on: ducksalad (Heteranthera limosa); assay: Test B flooded paddy test; settings: for Plant response rating, Flood, Ducksalad: 250 g ai/ha, flooded paddy test, visual rating on 0 to 100 scale (0 no effect, 100 complete control) after 13 to 15 days; for Plant response rating, Ducksalad: Flood (flooded paddy test), 13 to 15 days; for Ducksalad plant response rating: Flood, 31 g ai/ha, scale 0 to 100 (0 no effect, 100 complete control)
# Method in brief: as §1
# [4] = tested on: giant foxtail (Setaria faberii); assay: Test A pre-/postemergence plant response
# Method in brief: (§2)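 Pre: directed soil spray on seeded loam/sand blend. Post: same formulation (non-phytotoxic solvent + surfactant) on 2–10 cm plants, 1–2 leaf stage. Greenhouse ~10 d; visual injury score 0–100 vs untreated.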
# [5] = tested on: pigweed (Amaranthus retroflexus); assay: Test A pre-/postemergence plant response
# Method in brief: as §2
# [6] = tested on: wheat (Triticum aestivum); assay: Test A pre-/postemergence plant response
# Method in brief: as §2
# corn (Zea mays) = assay: Test A pre-/postemergence plant response
# Method in brief: as §2
# [7] = tested on: morningglory (Ipomoea spp.); assay: Test A pre-/postemergence plant response
# Method in brief: as §2
# [8] = tested on: large crabgrass (Digitaria sanguinalis); assay: Test A pre-/postemergence plant response
# Method in brief: as §2
# [9] = tested on: velvetleaf (Abutilon theophrasti); assay: Test A pre-/postemergence plant response
# Method in brief: as §2
# [10] = tested on: barnyardgrass (Echinochloa crus-galli); assay: Test A pre-/postemergence plant response
# Method in brief: as §2
# [11] = 62 g ai/ha, scale of 0 to 100 where 0 is no effect and 100 is complete control
# [12] = 125 g ai/ha, scale 0 to 100, 0 is no effect, 100 is complete control
# [13] = Postemergence, 125 g ai/ha, 0 to 100 scale where 0 is no effect and 100 is complete control
# [14] = Postemergence, 500 g ai/ha, visual injury, 0 to 100 scale (0 no effect, 100 complete control), approx. ten days
# [15] = Preemergence, 125 g ai/ha, 0 to 100 scale, 0 = no effect, 100 = complete control
# [16] = Preemergence, 500 g ai/ha, 0 to 100 scale, 0 = no effect, 100 = complete control
# [17] = Postemergence, 125 g ai/ha, visual injury, 0 to 100 scale (0 no effect, 100 complete control), approx. ten days
# [18] = Postemergence, 500 g ai/ha, 0 to 100 scale, 0 = no effect, 100 = complete control, approx. ten days
# [19] = Preemergence, 500 g ai/ha, visual injury, 0 to 100 scale (0 no effect, 100 complete control), approx. ten days
smiles,measurement,setting,value
CCc1cccc(-c2ncc(C(=O)C3=C(O)CCCC3=O)c(=O)n2C2CCCCC2)c1 [Compound 194],"Plant response rating, Flood, Sedge, Umbrella",[1],65
same,"Plant response rating, Sedge, Umbrella",[1]; [11],0
same,"Plant response rating, Sedge, Umbrella",[1]; [12],0
same,"Sedge, Umbrella plant response rating",[1],0
same,"Plant response rating, Flood, Rice",rice (Oryza sativa),0
same,"Plant response rating, Rice",rice (Oryza sativa); [11],0
same,"Plant response rating, Rice",rice (Oryza sativa); [12],0
same,Rice plant response rating,rice (Oryza sativa),0
same,"Plant response rating, Flood, Barnyardgrass",[2],15
same,"Plant response rating, Barnyardgrass",[2]; [11],0
same,"Plant response rating, Barnyardgrass",[2]; [12],10
same,Barnyardgrass plant response rating,[2],0
same,"Plant response rating, Flood, Ducksalad",[3],80
same,"Plant response rating, Ducksalad",[3]; [11],50
same,"Plant response rating, Ducksalad",[3]; [12],50
same,Ducksalad plant response rating,[3],40
same,"Plant response rating, Foxtail, Giant",[4]; [13],30
same,"Foxtail, Giant plant response rating",[4]; [14],50
same,"Plant response rating, Pigweed",[5]; [13],100
same,Pigweed plant response rating,[5]; [14],100
same,"Plant response rating, Pigweed",[5]; [15],50
same,"Plant response rating, Pigweed",[5]; [16],100
same,"Plant response rating, Wheat",[6]; [13],0
same,Wheat plant response rating,[6]; [14],0
same,"Plant response rating, Wheat",[6]; [15],0
same,"Plant response rating, Wheat",[6]; [16],0
same,"Plant response rating, Corn",corn (Zea mays); [13],0
same,Corn plant response rating,corn (Zea mays); [14],10
same,"Plant response rating, Corn",corn (Zea mays); [15],0
same,"Plant response rating, Corn",corn (Zea mays); [16],0
same,"Plant response rating, Morningglory",[7]; [13],90
same,Morningglory plant response rating,[7]; [14],100
same,"Plant response rating, Morningglory",[7]; [16],20
same,"Plant response rating, Crabgrass, Large",[8]; [13],60
same,"Crabgrass, Large plant response rating",[8]; [14],90
same,"Plant response rating, Crabgrass, Large",[8]; [15],20
same,"Plant response rating, Crabgrass, Large",[8]; [16],40
same,"Plant response rating, Velvetleaf",[9]; [13],100
same,Velvetleaf plant response rating,[9]; [14],100
same,"Plant response rating, Velvetleaf",[9]; [15],30
same,"Plant response rating, Velvetleaf",[9]; [16],70
same,"Plant response rating, Barnyardgrass",[10]; [13],90
same,Barnyardgrass plant response rating,[10]; [14],100
same,"Plant response rating, Barnyardgrass",[10]; [15],0
same,"Plant response rating, Barnyardgrass",[10]; [16],40
O=C1CCCC(O)=C1C(=O)c1cnc(-c2ccc(Cl)s2)n(-c2ccccc2)c1=O [Compound 65],"Plant response rating, Flood, Sedge, Umbrella",[1],0
same,"Plant response rating, Sedge, Umbrella",[1]; [11],0
same,"Plant response rating, Sedge, Umbrella",[1]; [12],0
same,"Sedge, Umbrella plant response rating",[1],0
same,"Plant response rating, Flood, Rice",rice (Oryza sativa),0
same,"Plant response rating, Rice",rice (Oryza sativa); [11],0
same,"Plant response rating, Rice",rice (Oryza sativa); [12],0
same,Rice plant response rating,rice (Oryza sativa),0
same,"Plant response rating, Flood, Barnyardgrass",[2],0
same,"Plant response rating, Barnyardgrass",[2]; [11],0
same,"Plant response rating, Barnyardgrass",[2]; [12],0
same,Barnyardgrass plant response rating,[2],0
same,"Plant response rating, Flood, Ducksalad",[3],0
same,"Plant response rating, Ducksalad",[3]; [11],0
same,"Plant response rating, Ducksalad",[3]; [12],0
same,Ducksalad plant response rating,[3],0
same,"Foxtail, Giant plant response rating",[4]; [17],10
same,"Plant response rating, Foxtail, Giant",[4]; [18],40
same,"Plant response rating, Foxtail, Giant",[4]; [15],0
same,"Plant response rating, Foxtail, Giant",[4]; [19],40
same,Pigweed plant response rating,[5]; [17],20
same,"Plant response rating, Pigweed",[5]; [18],60
same,"Plant response rating, Pigweed",[5]; [15],0
same,"Plant response rating, Pigweed",[5]; [19],0
same,Wheat plant response rating,[6]; [17],0
same,"Plant response rating, Wheat",[6]; [18],0
same,"Plant response rating, Wheat",[6]; [15],0
same,"Plant response rating, Wheat",[6]; [19],0
same,Corn plant response rating,corn (Zea mays); [17],0
same,"Plant response rating, Corn",corn (Zea mays); [18],0
same,"Plant response rating, Corn",corn (Zea mays); [15],0
same,"Plant response rating, Corn",corn (Zea mays); [19],0
same,Morningglory plant response rating,[7]; [17],50
same,"Plant response rating, Morningglory",[7]; [18],60
same,"Plant response rating, Morningglory",[7]; [15],0
same,"Plant response rating, Morningglory",[7]; [19],0
same,"Crabgrass, Large plant response rating",[8]; [17],30
same,"Plant response rating, Crabgrass, Large",[8]; [18],60
same,"Plant response rating, Crabgrass, Large",[8]; [15],10
same,"Plant response rating, Crabgrass, Large",[8]; [19],80
same,Velvetleaf plant response rating,[9]; [17],90
same,"Plant response rating, Velvetleaf",[9]; [18],100
same,"Plant response rating, Velvetleaf",[9]; [15],30
same,"Plant response rating, Velvetleaf",[9]; [19],50
same,Barnyardgrass plant response rating,[10]; [17],10
same,"Plant response rating, Barnyardgrass",[10]; [18],50
same,"Plant response rating, Barnyardgrass",[10]; [15],0
same,"Plant response rating, Barnyardgrass",[10]; [19],10
CCCCn1c(-c2cccc(F)c2)ncc(C(=O)C2=C(O)CCCC2=O)c1=O [Compound 125],"Plant response rating, Flood, Sedge, Umbrella",[1],90
same,"Plant response rating, Sedge, Umbrella",[1]; [11],35
same,"Plant response rating, Sedge, Umbrella",[1]; [12],90
same,"Sedge, Umbrella plant response rating",[1],25
same,"Plant response rating, Flood, Rice",rice (Oryza sativa),0
same,"Plant response rating, Rice",rice (Oryza sativa); [11],0
same,"Plant response rating, Rice",rice (Oryza sativa); [12],0
same,Rice plant response rating,rice (Oryza sativa),0
same,"Plant response rating, Flood, Barnyardgrass",[2],60
same,"Plant response rating, Barnyardgrass",[2]; [11],25
same,"Plant response rating, Barnyardgrass",[2]; [12],40
same,Barnyardgrass plant response rating,[2],0
same,"Plant response rating, Flood, Ducksalad",[3],70
same,"Plant response rating, Ducksalad",[3]; [11],40
same,"Plant response rating, Ducksalad",[3]; [12],60
same,Ducksalad plant response rating,[3],20
same,"Plant response rating, Foxtail, Giant",[4]; [13],70
same,"Plant response rating, Foxtail, Giant",[4]; [18],90
same,"Plant response rating, Foxtail, Giant",[4]; [15],40
same,"Plant response rating, Foxtail, Giant",[4]; [19],80
same,"Plant response rating, Pigweed",[5]; [13],90
same,"Plant response rating, Pigweed",[5]; [18],100
same,"Plant response rating, Pigweed",[5]; [15],90
same,"Plant response rating, Pigweed",[5]; [19],90
same,"Plant response rating, Wheat",[6]; [13],0
same,"Plant response rating, Wheat",[6]; [18],10
same,"Plant response rating, Wheat",[6]; [15],0
same,"Plant response rating, Wheat",[6]; [19],0
same,"Plant response rating, Corn",corn (Zea mays); [13],0
same,"Plant response rating, Corn",corn (Zea mays); [18],20
same,"Plant response rating, Corn",corn (Zea mays); [15],0
same,"Plant response rating, Corn",corn (Zea mays); [19],0
same,"Plant response rating, Morningglory",[7]; [13],80
same,"Plant response rating, Morningglory",[7]; [18],80
same,"Plant response rating, Morningglory",[7]; [15],0
same,"Plant response rating, Morningglory",[7]; [19],0
same,"Plant response rating, Crabgrass, Large",[8]; [13],70
same,"Plant response rating, Crabgrass, Large",[8]; [18],90
same,"Plant response rating, Crabgrass, Large",[8]; [15],80
same,"Plant response rating, Crabgrass, Large",[8]; [19],100
same,"Plant response rating, Velvetleaf",[9]; [13],100
same,"Plant response rating, Velvetleaf",[9]; [18],100
same,"Plant response rating, Velvetleaf",[9]; [15],60
same,"Plant response rating, Velvetleaf",[9]; [19],100
same,"Plant response rating, Barnyardgrass",[10]; [13],70
same,"Plant response rating, Barnyardgrass",[10]; [18],90
same,"Plant response rating, Barnyardgrass",[10]; [15],10
same,"Plant response rating, Barnyardgrass",[10]; [19],90
